We go through 37 molecules from patent US10472347B2, “Aminopyrazine compounds with A2A antagonist properties” (Merck Sharp & Dohme Corp., priority 2014, dated 2019).

Usually Ki stands for a measure of affinity in units of concentration, obtained from inhibition or displacement.

The structures appear in SMILES notation.

For this assay, the target named is T1, human A2a receptor (Homo sapiens, UniProt P29274).
T1 construct: purchased Perkin-Elmer RBHA2AM400UA; host or cells: HEK293 cells (membranes)
T1 sequence (P29274 whole entry): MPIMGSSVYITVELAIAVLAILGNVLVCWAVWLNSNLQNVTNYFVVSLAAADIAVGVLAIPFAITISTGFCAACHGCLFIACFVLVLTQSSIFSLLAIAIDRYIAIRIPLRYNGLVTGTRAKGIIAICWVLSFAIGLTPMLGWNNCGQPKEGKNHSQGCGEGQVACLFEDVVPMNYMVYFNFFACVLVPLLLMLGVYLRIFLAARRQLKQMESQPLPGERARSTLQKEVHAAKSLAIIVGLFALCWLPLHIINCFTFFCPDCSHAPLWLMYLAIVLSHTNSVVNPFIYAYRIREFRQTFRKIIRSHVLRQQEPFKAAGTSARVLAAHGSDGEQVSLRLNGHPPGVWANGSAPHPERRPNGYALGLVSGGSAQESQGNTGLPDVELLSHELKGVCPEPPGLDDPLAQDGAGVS
Nature of the assay: A2a competition binding assay, Scintillation Proximity technology. Particulars: membranes from HEK293 cells expressing human A2a receptor; Ki by Cheng-Prusoff equation. In outline: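 SPA competition: 0.5 nM tritiated pyrazolotriazolopyrimidine ligand displaced by compound at 3000 to 0.15 nM, 1 h room temperature, human A2a HEK293 membranes pretreated with adenosine deaminase, PBS/10 mM MgCl2 buffer. CGS15943 1 μM defined non-specific binding; EC50 converted to Ki via Cheng-Prusoff.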
On the technique in general: In a scintillation proximity assay essentially only radioactivity close to the scintillant gives light.
Molecule `CCn1ncnc1CNC(=O)c1nc(C)c(-c2ncco2)nc1N` [Ex-166, 3-amino-N-[(1-ethyl-1H-1,2,4-triazol-5-yl)methyl]-6-methyl-5-(1,3-oxazol-2-yl)pyrazine-2-carboxamide] had an inhibitory constant (Ki) of 0.599 nM.

For the molecule `CCOc1cccnc1CNC(=O)c1nc(C)c(-c2ncco2)nc1N` [Ex-167, 3-amino-N-[(3-ethoxypyridin-2-yl)methyl]-6-methyl-5-(1,3-oxazol-2-yl)pyrazine-2-carboxamide], the Ki was 0.158 nM.

As for `Cc1nc(C(=O)NCc2ncc(F)cc2C2CC2)c(N)nc1-c1ncco1` [Ex-169, 3-amino-N-[(3-cyclopropyl-5-fluoropyridin-2-yl)methyl]-6-methyl-5-(1,3-oxazol-2-yl)pyrazine-2-carboxamide], affinity was put at a Ki of 0.375 nM.

The molecule `Cc1nc(C(=O)NCc2nn(C)cc2C2CC2)c(N)nc1-c1ncco1` [Ex-170, 3-amino-N-[(4-cyclopropyl-1-methyl-1H-pyrazol-3-yl)methyl]-6-methyl-5-(1,3-oxazol-2-yl)pyrazine-2-carboxmamide] showed a Ki of 0.482 nM.

For the molecule `Cc1nc(C(=O)NCc2nccnc2F)c(N)nc1-c1ncco1` [Ex-172, 3-amino-N-[(3-fluoropyrazin-2-yl)methyl]-6-methyl-5-(1,3-oxazol-2-yl)pyrazine-2-carboxamide], the inhibition constant (Ki) turned out to be 3.05 nM.

With `CCOc1cccc(F)c1CNC(=O)c1nc(C)c(-c2ncco2)nc1N` [Ex-173, 3-amino-N-(2-ethoxy-6-fluorobenzyl)-6-methyl-5-(1,3-oxazol-2-yl)pyrazine-2-carboxamide], the Ki stood at 0.191 nM.

In the case of `Cc1nc(C(=O)NCc2nn(C)c3c2CCC3)c(N)nc1-c1ncco1` [Ex-174, 3-amino-6-methyl-N-[(1-methyl-1,4,5,6-tetrahydrocyclopenta[c]pyrazol-3-yl)methyl]-5-(1,3-oxazol-2-yl)pyrazine-2-carboxamide], the affinity corresponds to a Ki of 2.96 nM.

The molecule `Cc1cncnc1CNC(=O)c1nc(C)c(-c2ncco2)nc1N` [Ex-175, 3-amino-6-methyl-N-[(5-methylpyrimidin-4-yl)methyl]-5-(1,3-oxazol-2-yl)pyrazine-2-carboxamide] showed a Ki of 6.31 nM.

With `Cc1nc(C(=O)NCc2nccc3ccccc23)c(N)nc1-c1ncco1` [Ex-178, 3-amino-N-(isoquinolin-1-ylmethyl)-6-methyl-5-(1,3-oxazol-2-yl)pyrazine-2-carboxamide], affinity was put at a Ki of 0.217 nM.

Take `CCc1cccnc1CNC(=O)c1nc(C)c(-c2ncco2)nc1N` [Ex-179, 3-amino-N-[(3-ethylpyridin-2-yl)methyl]-6-methyl-5-(1,3-oxazol-2-yl)pyrazine-2-carboxamide]: the inhibition constant Ki came to 0.1 nM.

Turning to `Cc1nc(C(=O)NCc2nccc(F)c2C2CC2)c(N)nc1-c1ncco1` [Ex-180, 3-amino-N-[(3-cyclopropyl-4-fluoropyridin-2-yl)methyl]-6-methyl-5-(1,3-oxazol-2-yl)pyrazine-2-carboxamide], the Ki stood at 0.168 nM.

Molecule `Cc1nc(C(=O)NCc2cccc3c2ncn3CC(F)(F)F)c(N)nc1-c1ncco1` [Ex-181, 3-amino-6-methyl-5-(1,3-oxazol-2-yl)-N-{[1-(2,2,2-trifluoroethyl)-1H-benzimidazol-4-yl]methyl}pyrazine-2-carboxamide] gave a Ki of 1.3 nM. This Ki lies about 7.7-fold higher than the previous one.

For the molecule `Cc1nc(C(=O)NCc2ncc(C(F)(F)F)cc2C2CC2)c(N)nc1-c1ncco1` [Ex-182, 3-amino-N-{[3-cyclopropyl-5-(trifluoromethyl)pyridin-2-yl]methyl}-6-methyl-5-(1,3-oxazol-2-yl)pyrazine-2-carboxamide], the inhibitory constant (Ki) stood at 2.7 nM.

With `Cc1cc(C(F)(F)F)cnc1CNC(=O)c1nc(C)c(-c2ncco2)nc1N` [Ex-183, 3-amino-6-methyl-N-{[3-methyl-5-(trifluoromethyl)pyridin-2-yl]methyl}-5-(1,3-oxazol-2-yl)pyrazine-2-carboxamide], the Ki is 6.72 nM.

`Cc1nc(C(=O)NCc2nccnc2C2CC2)c(N)nc1-c1ncco1` [Ex-184, 3-amino-N-[(3-cyclopropyl-pyrazin-2-yl)methyl]-6-methyl-5-(1,3-oxazol-2-yl)pyrazine-2-carboxamide] showed an inhibitory constant (Ki) of 0.208 nM.

Turning to `Cc1cnc(CNC(=O)c2nc(C)c(-c3ncco3)nc2N)nc1` [Ex-185, 3-amino-6-methyl-N-[(5-methylpyrimidin-2-yl)methyl]-5-(1,3-oxazol-2-yl)pyrazine-2-carboxamide], the affinity corresponds to a Ki of 4.25 nM. This Ki lies about 20-fold higher than the previous one.

As for `COc1cccc(F)c1CNC(=O)c1nc(C)c(-c2ncco2)nc1N` [Ex-186, 3-amino-N-(2-fluoro-6-methoxybenzyl)-6-methyl-5-(1,3-oxazol-2-yl)pyrazine-2-carboxamide], the Ki is 0.181 nM.

As for `CCc1nccnc1CNC(=O)c1nc(C)c(-c2ncco2)nc1N` [Ex-187, 3-amino-N-[(3-ethylpyrazin-2-yl)methyl]-6-methyl-5-(1,3-oxazol-2-yl)pyrazine-2-carboxamide], the affinity, expressed as Ki, was 0.449 nM.

For the molecule `Cc1nc(C(=O)NCc2ncnn2C(C)C)c(N)nc1-c1ncco1` [Ex-188, 3-amino-6-methyl-N-{[1-(1-methylethyl)-1H-1,2,4-triazol-5-yl]methyl}-5-(1,3-oxazol-2-yl)pyrazine-2-carboxamide], the affinity corresponds to a Ki of 0.29 nM.

`Cc1nc(C(=O)NCc2cccc3c2ncn3C(C)C)c(N)nc1-c1ncco1` [Ex-189] returned a Ki of 1.03 nM.

In turn, `Cc1nc2c(o1)CN(CCNC(=O)c1nc(C)c(-c3ncco3)nc1N)CC2` [Ex-190, 3-amino-6-methyl-N-[2-(2-methyl-6,7-dihydro[1,3]oxazolo[5,4-c]pyridin-5-(4H)-yl)ethyl]-5-(1,3-oxazol-2-yl)pyrazine-2-carboxamide] gave a Ki of 12.3 nM.

Molecule `CCn1cnc2c(CNC(=O)c3nc(C)c(-c4ncco4)nc3N)cccc21` [Ex-193, 3-amino-N-[(1-ethyl-1H-benimidazol-4-yl)methyl]-6-methyl-5-(1,3-oxazol-2-yl)pyrazine-2-carboxamide] had an inhibition constant Ki of 0.435 nM.

`Cc1nc(C(=O)NCc2nn(C)cc2C(F)F)c(N)nc1-c1ncco1` [Ex-194, 3-amino-N-{[4-(difluoromethyl)-1-methyl-1H-pyrazol-3-yl]methyl}-6-methyl-5-(1,3-oxazol-2-yl)pyrazine-2-carboxamide]: the affinity corresponds to a Ki of 1.65 nM. This Ki lies about 3.8-fold higher than the previous one.

As for `Cc1nccnc1CNC(=O)c1nc(C)c(-c2ncco2)nc1N` [Ex-195, 3-amino-6-methyl-N-[(3-methylpyrazin-2-yl)methyl]-5-(1,3-oxazol-2-yl)pyrazine-2-carboxamide], the Ki was 1.71 nM. This Ki and that of the molecule before are within 1.5-fold of each other.

Take `CCc1cc(C(F)(F)F)cnc1CNC(=O)c1nc(C)c(-c2ncco2)nc1N` [Ex-196, 3-amino-N-{[3-ethyl-5-(trifluoromethyl)pyridin-2-yl]methyl}-6-methyl-5-(1,3-oxazol-2-yl)pyrazine-2-carboxamide]: the affinity corresponds to a Ki of 2.53 nM.

Turning to `Cc1nc(C(=O)NCc2ncc(C3CC3)cn2)c(N)nc1-c1ncco1` [Ex-197, 3-amino-N-[(5-cyclopropylpyrimidin-2-yl)methyl]-6-methyl-5-(1,3-oxazol-2-yl)pyrazine-2-carboxamide], the inhibitory constant (Ki) worked out at 6.37 nM.

`Cc1nc(C(=O)NCc2nccc3ncn(C)c23)c(N)nc1-c1ncco1` [Ex-198, 3-amino-6-methyl-N-[(3-methyl-3H-imidazo[4,5-c]pyridin-4-yl)methyl]-5-(1,3-oxazol-2-yl)pyrazine-2-carboxamide] came in with a Ki of 8.77 nM.

`CCc1cnc(CNC(=O)c2nc(C)c(-c3ncco3)nc2N)nc1` [Ex-199, 3-amino-N-[(5-ethylpyrimidin-2-yl)methyl]-6-methyl-5-(1,3-oxazol-2-yl)pyrazine-2-carboxamide] yielded a Ki of 9.42 nM. This Ki and that of the molecule before are within 1.5-fold of each other.

For the molecule `Cc1nc(C(=O)N[C@H]2CCc3cc(F)ccc32)c(N)nc1-c1ncco1` [Ex-200, 3-amino-N-[(1S)-5-fluoro-2,3-dihydro-1H-inden-1-yl]-6-methyl-5-(1,3-oxazol-2-yl)pyrazine-2-carboxamide], the affinity corresponds to a Ki of 14.7 nM. Compared with the last molecule, the Ki is about 1.6-fold higher.

As to `Cc1nc(C(=O)N[C@H]2CCc3ccc(F)cc32)c(N)nc1-c1ncco1` [Ex-201, 3-amino-N-[(1S)-6-fluoro-2,3-dihydro-1H-inden-1-yl]-6-methyl-5-(1,3-oxazol-2-yl)pyrazine-2-carboxamide], the Ki is 0.633 nM.

For `Cc1nc(C(=O)N[C@@H]2CCC[C@H]2O)c(N)nc1-c1ncco1` [Ex-202, 3-amino-N-[(1R,2R)-2-hydroxycyclopentyl]-6-methyl-5-(1,3-oxazol-2-yl)pyrazine-2-carboxamide], the Ki is 2.22 nM.

In the case of `Cc1nc(C(=O)N[C@H]2CCC[C@H]2F)c(N)nc1-c1ncco1` [Ex-203, 3-amino-N-[(1S,2R)-2-fluorocyclopentyl]-6-methyl-5-(1,3-oxazol-2-yl)pyrazine-2-carboxamide], the Ki is 3.48 nM.

Consider `Cc1nc(C(=O)N[C@@H]2CCC[C@H]2N(C)C)c(N)nc1-c1ncco1` [Ex-204, 3-amino-N-[(1R,2R)-2-(dimethylamino)cyclopentyl]-6-methyl-5-(1,3-oxazol-2-yl)pyrazine-2-carboxamide], for which the affinity, expressed as Ki, was 1500 nM.

The molecule `Cc1nc(C(=O)N(C)[C@@H]2CCC[C@H]2O)c(N)nc1-c1ncco1` [Ex-205, 3-amino-N-[(1R,2R)-2-hydroxycyclopentyl]-N,6-dimethyl-5-(1,3-oxazol-2-yl)pyrazine-2-carboxamide] came in with an inhibition constant Ki of 385 nM.

Consider `Cc1nc(C(=O)N[C@@H]2CCC[C@H]2F)c(N)nc1-c1ncco1` [Ex-206, 3-amino-N-[(1R,2R)-2-fluorocyclopentyl]-6-methyl-5-(1,3-oxazol-2-yl)pyrazine-2-carboxamide], for which the Ki is 3.72 nM.

`Cc1nc(C(=O)N[C@H]2[C@H](C)CC[C@H]2O)c(N)nc1-c1ncco1` [Ex-207, 3-amino-N-[(1S,2R,5R)-2-hydroxy-5-methylcyclopentyl]-6-methyl-5-(1,3-oxazol-2-yl)pyrazine-2-carboxamide] had an inhibition constant (Ki) of 2.92 nM.

In the case of `C#CC[C@H]1CCC[C@H]1NC(=O)c1nc(C)c(-c2ncco2)nc1N` [Ex-208, 3-amino-6-methyl-5-(1,3-oxazol-2-yl)-N-[(1R,2R)-2-prop-2-yl-1-ylcyclopentyl]pyrazine-2-carboxamide], affinity was put at a Ki of 0.982 nM.
